Test results reported in patent US9538782B2, “Inhibition of sensory irritation during consumption of smokeless tobacco products using a combinatorial approach” (Altria Client Services LLC, priority 2013, dated 2017).

Experiments:
human subjects = test: human subject study of camphor added to pouches of smokeless tobacco; format: in vivo
Description: Nicotine, for example, is an agonist of the nicotinic acetylcholine receptors, and can produce the sensory irritation, such as burning or stinging, in the mouth or throat, as well as the gastrointestinal discomfort sometimes associated with smokeless tobacco products.

sensory nerve fibers = settings: isolated mouse trachea model; Kichco et al. 2007; cited from earlier work
TRPV1 sensory channel = TRPV1 sensory channel (Homo sapiens, UniProt Q8NER1); test: TRPV1 activation in human tissue culture cells expressing the TRPV1 sensory channel; format: cell-based; settings: activator capsaicin or camphor applied co-incident with curcumin or 5 minutes after curcumin
Experimental: It will be further understood by those skilled in the art that active ingredients appropriate for use in the present smokeless tobacco product may function as antagonists to one or more receptors and/or channels and agonists to one or more receptors and/or channels. Compounds known to activate the TRPV1 channel were applied to human tissue culture cells expressing the TRPV1 sensory channel either co-incident with the application of curcumin or following the application of curcumin by 5 minutes. Camphor and capsaicin are both known activators of the TRPV1 channel. However, these two compounds activate the sensory channel by different mechanisms. Curcumin, on the other hand, is a potent antagonist of the TPRV1 sensory channel. When capasaicin or camphor were added to cells expressing the TRPV1 sensory channel with curcumin, TRPV1 sensory activation was inhibited.

TRPV1 sensory channel, sequence (Q8NER1 whole entry): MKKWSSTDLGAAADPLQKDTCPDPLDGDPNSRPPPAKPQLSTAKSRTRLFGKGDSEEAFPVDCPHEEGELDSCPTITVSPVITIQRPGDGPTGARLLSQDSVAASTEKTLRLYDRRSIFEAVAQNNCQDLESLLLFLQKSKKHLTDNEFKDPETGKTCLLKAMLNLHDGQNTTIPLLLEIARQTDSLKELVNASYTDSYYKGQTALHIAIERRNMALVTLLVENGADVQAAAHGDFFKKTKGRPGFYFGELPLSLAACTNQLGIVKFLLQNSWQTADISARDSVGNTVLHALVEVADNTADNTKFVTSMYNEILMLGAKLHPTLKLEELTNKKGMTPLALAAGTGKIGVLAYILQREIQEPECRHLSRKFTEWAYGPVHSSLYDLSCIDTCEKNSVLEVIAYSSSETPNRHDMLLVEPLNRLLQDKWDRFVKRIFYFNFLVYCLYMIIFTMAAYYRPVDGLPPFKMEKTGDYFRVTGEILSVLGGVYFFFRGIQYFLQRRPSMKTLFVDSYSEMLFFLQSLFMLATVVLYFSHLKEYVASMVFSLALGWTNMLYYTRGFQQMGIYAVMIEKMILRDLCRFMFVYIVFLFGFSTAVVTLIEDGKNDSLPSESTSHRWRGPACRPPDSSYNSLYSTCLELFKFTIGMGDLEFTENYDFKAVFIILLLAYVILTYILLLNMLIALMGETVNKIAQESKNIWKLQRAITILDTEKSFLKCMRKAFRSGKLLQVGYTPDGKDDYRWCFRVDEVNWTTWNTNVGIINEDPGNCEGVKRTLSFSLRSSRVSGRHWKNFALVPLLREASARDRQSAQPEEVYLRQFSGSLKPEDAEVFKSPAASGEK

CC12CCC(CC1=O)C2(C)C (stereo not drawn) [camphor]
sensation of burning at the pouch location and along the path of saliva that had been in contact with the pouch (human subjects): reduced the sensation of burning | activation of sensory nerve fibers induced by nicotine (sensory nerve fibers): effectively inhibit

COc1cc(/C=C/C(=O)CC(=O)/C=C/c2ccc(O)c(OC)c2)ccc1O [curcumin]
TRPV1 sensory activation (TRPV1 sensory channel): inhibited
